According to patent publication US6890736B1, “Methods for producing proteins in cultured cells” (Immunex Corporation, priority 2002, dated 2005):
Values joined by “and” are separate entries in the source; they are usually repeats but may differ in a detail not shown here. Identical values can stand only once.

Columns and labels:
Assay type in all cases: cell-based, Chinese hamster
[1] = test system: cell line 25H9 (CHO cells that produce IL-1R-II protein); experiment: Example 3: induction with 5-bromo-2′-deoxycytidine 5′-monophosphate, IL-1R-II production; conditions: 31° C., 10 μM
Description: (§1) About 2×10^6 cells of cell line 25H9 were inoculated into 30 milliliters of serum-free medium and incubated at the temperatures indicated in Table 1 in vented shake flasks. At the times indicated in Table 1, samples were taken from each flask to determine IL-1R-II titer, cell number, and cell viability. IL-1R-II protein titer was determined by ELISA assay. Cell number was determined by counting cells in a hemocytometer. Cell viability was determined by trypan blue staining and counting stained cells in a hemocytometer. Cumulative viable cell density (CVCD) is the area under the curve of a plot of the viable cell density versus time (in units of cells/ml/day). Productivity (pg of IL-1R-II/cell/day) was determined by dividing the protein titer on a particular day by the CVCD on the same day. Cells were fed with amino acids on days 2 and 5, and dextrose was added periodically in order to maintain levels above 2.0 g/L. All samples were done in duplicate, and the data shown is an average value.
The following experiment compares the effects of 5-bromo-2′-deoxycytidine 5′-monophosphate and 5-aza-2′-deoxycytidine on induction of protein production. The experiment was done as described in Example 1 with the following exceptions. All cultures were incubated at 31° C., and cell number and viability were determined using a Guava PCA Cytometer (available from Guava Technologies, Hayward, Calif., USA). Samples were done in triplicate.

[2] = test system: cell line 25H9 (CHO cells that produce IL-1R-II protein); experiment: Example 1: induction of IL-1R-II production (ELISA titer, productivity) at 31° C. or 34° C.
Description: (§2) The following experiment was designed to test whether decitabine can induce the production of a protein, in this case a recombinant soluble form of the human interleukin 1 receptor type II (IL-1-R-II), at either 31° C. or 34° C. Soluble versions of IL-1R-II and methods for producing it are described in U.S. Pat. No. 5,767,064. DNA encoding a soluble form of the human IL-1R-II was inserted into pG3.6, which is described in Morris et al. ((1998), Cytotechnology 28:9-17). This construct was used to transfect CHO cells to produce cell lines, including 25H9, that produce IL-1R-II protein.
as §1

[3] = Example 1: cell number (hemocytometer) and viability (trypan blue); conditions: Chinese hamster; for viability at 0 day, 1 μM / viability at 3 day, 1 μM / viability at 5 day, 1 μM / viability at 7 day, 1 μM / viability at 10 day, 1 μM: 1 μM decitabine; for viability at 0 day, 1 μM / viability at 0 day, 5 μM / viability at 0 day, 10 μM: day 0; for viability at 3 day, 1 μM / viability at 3 day, 5 μM / viability at 3 day, 10 μM: day 3; for viability at 5 day, 1 μM / viability at 5 day, 5 μM / viability at 5 day, 10 μM: day 5; for viability at 7 day, 1 μM / viability at 7 day, 5 μM / viability at 7 day, 10 μM: day 7; for viability at 0 day, 5 μM / viability at 3 day, 5 μM / viability at 5 day, 5 μM / viability at 7 day, 5 μM / viability at 10 day, 5 μM: 5 μM decitabine
Description: as §2, §1

[4] = 31° C., 1 μM decitabine, day 10
[5] = 31° C., 5 μM decitabine, day 10
[6] = 31° C., 10 μM decitabine, day 3
[7] = 31° C., 10 μM decitabine, day 5
[8] = 31° C., 10 μM decitabine, day 7
[9] = 31° C., 10 μM decitabine, day 10
[10] = 34° C., 10 μM decitabine, day 3
[11] = 34° C., 10 μM decitabine, day 5
[12] = 34° C., 10 μM decitabine, day 7

Structure (SMILES): Nc1ncn([C@H]2C[C@H](O)[C@@H](CO)O2)c(=O)n1 [decitabine, 5-aza-2′-deoxycytidine]
- Titer of IL-1R-II ([1]; day 0): 0.0 mg/L
- Productivity ([1]; day 2): 12.2 pg of IL-1RII/cell/day
- Titer of IL-1R-II ([1]; day 2): 58.5 mg/L
- Productivity ([1]; day 5): 13.3 pg of IL-1RII/cell/day
- Titer of IL-1R-II ([1]; day 5): 148.5 mg/L
- Productivity ([1]; day 7): 14.1 pg of IL-1RII/cell/day
- Titer of IL-1R-II ([1]; day 7): 197.5 mg/L
- Productivity ([1]; day 9): 14.9 pg of IL-1RII/cell/day
- Titer of IL-1R-II ([1]; day 9): 238.4 mg/L
- IL-1R-II Titer ([2]; 31° C., 1 μM decitabine, day 0): 0.0 µg/mL
- IL-1R-II Titer ([2]; 31° C., 1 μM decitabine, day 3): 62.6 µg/mL
- Productivity ([2]; 31° C., 1 μM decitabine, day 3): 7.5 pg IL-1R-II/cell/day
- IL-1R-II Titer ([2]; 31° C., 1 μM decitabine, day 5): 132.0 µg/mL
- Productivity ([2]; 31° C., 1 μM decitabine, day 5): 7.8 pg IL-1R-II/cell/day
- IL-1R-II Titer ([2]; 31° C., 1 μM decitabine, day 7): 216.5 µg/mL
- Productivity ([2]; 31° C., 1 μM decitabine, day 7): 7.8 pg IL-1R-II/cell/day
- IL-1R-II Titer [2, 4]: 330.5 µg/mL
- Productivity [2, 4]: 7.5 pg IL-1R-II/cell/day
- IL-1R-II Titer ([2]; 31° C., 5 μM decitabine, day 0): 0.0 µg/mL
- IL-1R-II Titer ([2]; 31° C., 5 μM decitabine, day 3): 77.8 µg/mL
- Productivity ([2]; 31° C., 5 μM decitabine, day 3): 9.2 pg IL-1R-II/cell/day
- IL-1R-II Titer ([2]; 31° C., 5 μM decitabine, day 5): 123.5 µg/mL
- Productivity ([2]; 31° C., 5 μM decitabine, day 5): 7.8 pg IL-1R-II/cell/day
- IL-1R-II Titer ([2]; 31° C., 5 μM decitabine, day 7): 210.5 µg/mL
- Productivity ([2]; 31° C., 5 μM decitabine, day 7): 9.2 pg IL-1R-II/cell/day
- IL-1R-II Titer [2, 5]: 351.0 µg/mL
- Productivity [2, 5]: 8.8 pg IL-1R-II/cell/day
- IL-1R-II titer relative to the titer observed at 31° C. with no inducer ([2]; 31° C., 10 μM decitabine): 1.7 times
- most effective concentration for IL-1R-II titer ([2]; 31° C., 10 μM decitabine among 1, 5, 10 μM): most effective concentration among those tested
- IL-1R-II Titer ([2]; 31° C., 10 μM decitabine, day 0): 0.0 µg/mL
- IL-1R-II Titer [2, 6]: 59.1 µg/mL
- Productivity [2, 6]: 8.0 pg IL-1R-II/cell/day
- IL-1R-II Titer [2, 7]: 149.5 µg/mL
- Productivity [2, 7]: 10.4 pg IL-1R-II/cell/day
- IL-1R-II Titer [2, 8]: 224.5 µg/mL
- Productivity [2, 8]: 10.4 pg IL-1R-II/cell/day
- IL-1R-II Titer [2, 9]: 378 µg/mL and 378.0 µg/mL
- Productivity [2, 9]: 11.9 pg IL-1R-II/cell/day
- IL-1R-II Titer ([2]; 34° C., 1 μM decitabine, day 0): 0.0 µg/mL
- IL-1R-II Titer ([2]; 34° C., 1 μM decitabine, day 3): 65.4 µg/mL
- Productivity ([2]; 34° C., 1 μM decitabine, day 3): 5.7 pg IL-1R-II/cell/day
- IL-1R-II Titer ([2]; 34° C., 1 μM decitabine, day 5): 143.5 µg/mL
- Productivity ([2]; 34° C., 1 μM decitabine, day 5): 5.6 pg IL-1R-II/cell/day
- IL-1R-II Titer ([2]; 34° C., 1 μM decitabine, day 7): 212.5 µg/mL
- Productivity ([2]; 34° C., 1 μM decitabine, day 7): 5.1 pg IL-1R-II/cell/day
- IL-1R-II Titer ([2]; 34° C., 1 μM decitabine, day 10): 206.0 µg/mL
- IL-1R-II Titer ([2]; 34° C., 5 μM decitabine, day 0): 0.0 µg/mL
- IL-1R-II Titer ([2]; 34° C., 5 μM decitabine, day 3): 73.6 µg/mL
- Productivity ([2]; 34° C., 5 μM decitabine, day 3): 6.4 pg IL-1R-II/cell/day
- IL-1R-II Titer ([2]; 34° C., 5 μM decitabine, day 5): 156.5 µg/mL
- Productivity ([2]; 34° C., 5 μM decitabine, day 5): 6.3 pg IL-1R-II/cell/day
- IL-1R-II Titer ([2]; 34° C., 5 μM decitabine, day 7): 218.5 µg/mL
- Productivity ([2]; 34° C., 5 μM decitabine, day 7): 5.7 pg IL-1R-II/cell/day
- IL-1R-II Titer ([2]; 34° C., 5 μM decitabine, day 10): 307 µg/mL and 307.0 µg/mL
- IL-1R-II Titer ([2]; 34° C., 10 μM decitabine, day 0): 0.0 µg/mL
- IL-1R-II Titer [2, 10]: 80.8 µg/mL
- Productivity [2, 10]: 8.3 pg IL-1R-II/cell/day
- IL-1R-II Titer [2, 11]: 151.5 µg/mL
- Productivity [2, 11]: 7.9 pg IL-1R-II/cell/day
- IL-1R-II Titer [2, 12]: 203.5 µg/mL
- Productivity [2, 12]: 7.5 pg IL-1R-II/cell/day
- IL-1R-II titers at 34° C. compared with 31° C. ([2]; all concentrations of decitabine at 34° C.): Lower IL-1R-II titers
- productivity on a per cell basis ([2]; at 7 and 10 days at all concentrations and temperatures tested): increased
- viability at 0 day, 1 μM ([3]; 31° C.): 96.1%
- viability at 3 day, 1 μM ([3]; 31° C.): 93.4%
- viability at 5 day, 1 μM ([3]; 31° C.): 94.8%
- viability at 7 day, 1 μM ([3]; 31° C.): 87.7%
- viability at 10 day, 1 μM ([3]; 31° C., day 10): 63.9%
- viability at 0 day, 5 μM ([3]; 31° C.): 96.1%
- viability at 3 day, 5 μM ([3]; 31° C.): 93.6%
- viability at 5 day, 5 μM ([3]; 31° C.): 84.6%
- viability at 7 day, 5 μM ([3]; 31° C.): 77.7%
- viability at 10 day, 5 μM ([3]; 31° C., day 10): 58.5%
- viability at 0 day, 10 μM ([3]; 31° C., 10 μM decitabine): 96.1%
- viability at 3 day, 10 μM ([3]; 31° C., 10 μM decitabine): 94.5%
- viability at 5 day, 10 μM ([3]; 31° C., 10 μM decitabine): 80.8%
- viability at 7 day, 10 μM ([3]; 31° C., 10 μM decitabine): 72.5%
- viability at 10 day, 10 μM [3, 9]: 50.6%
- viability at 0 day, 1 μM ([3]; 34° C.): 96.1%
- viability at 3 day, 1 μM ([3]; 34° C.): 93.6%
- viability at 5 day, 1 μM ([3]; 34° C.): 91.5%
- viability at 7 day, 1 μM ([3]; 34° C.): 55%
- viability at 10 day, 1 μM ([3]; 34° C., day 10): 21.4%
- viability at 0 day, 5 μM ([3]; 34° C.): 96.1%
- viability at 3 day, 5 μM ([3]; 34° C.): 96.1%
- viability at 5 day, 5 μM ([3]; 34° C.): 80.3%
- viability at 7 day, 5 μM ([3]; 34° C.): 62.7%
- viability at 10 day, 5 μM ([3]; 34° C., day 10): 33.3%
- viability at 0 day, 10 μM ([3]; 34° C., 10 μM decitabine): 96.1%
- viability at 3 day, 10 μM ([3]; 34° C., 10 μM decitabine): 93.6%
- viability at 5 day, 10 μM ([3]; 34° C., 10 μM decitabine): 75.3%
- viability at 7 day, 10 μM ([3]; 34° C., 10 μM decitabine): 43.9%
